Key:
Type in all cases: cell-based, human
[1] = tested on: U-266 Multiple Myeloma cell line; assay: DIMSCAN cytotoxicity, fenretinide + L-threo-sphinganines 3:1 (Example B3); conditions: 96 h
Procedure: (§1) Cytotoxicity Assay—Once again, cytotoxicity is determined using the DIMSCAN assay system (R. Proffitt et al., Cytometry 24, 204-213 (1996); T. Frgala et al., Mol Cancer Ther. 6:886-97, 2007). The system employs digital imaging microscopy to quantify viable cells, which selectively accumulate fluorescein diacetate to become brightly fluorescent. The system is capable of measuring cytotoxicity over a 4-5 log dynamic range by quenching the residual fluorescence of dead and dying cells with eosin Y and quantifying the total fluorescence of viable cells using digital thresholding. Measured fluorescence is directly proportionate to the number of viable cells. A comparison of the total fluorescence of a drug-treated cell population to the fluorescence of a similar number of untreated cells yields a survival fraction. In brief, 2000 to 10,000 cells/well (depending on size and growth rates) are replicate plated into 60 wells of a 96-well tissue culture plate in 0.1 mL of whole medium and allowed to attach overnight. Drug(s) are then added in 0.05 mL of whole medium to the final concentrations indicated. Drugs (fenretinide, and various chain length L-threo-sphinganines) were tested both as single agents and in a 3:1 ratio of fenretinide:sphinganine. C18-L-threo-sphinganine, or “safingol,” was also tested and results shown for reference. There are 12 wells treated per drug concentration. Twelve wells receive drug vehicle-only to the appropriate final concentration and serve as controls for the plate. Cells are incubated for 96 hours at 37° C. in ambient air with 5% CO2. Fluorescein diacetate is then added to each well in 0.05 mL media to a final concentration of 8 microgram/mL. Cells are incubated for a further 15 minutes at 37° C. and 0.03 mL of 0.5% eosin Y is added to each well. Total fluorescence of viable cells is then measured by digital imaging microscopy. Results were graphed as the ratio of the fluoresecence of drug-treated wells to non-drug treated control wells (i.e., Survival Fraction). All tests were performed at least twice. Representative results are shown.
(§2) The Combination Index (CI) is a term to describe mathematical modeling of the pharmacologic effects on cytotoxicity (cell death) of two drugs in combination based. Cytotoxic “synergy” is defined as a cell death affect which is greater than would be expected from a simple product of the single agent cytotoxicities alone (i.e. an “additive” effect). By Chou-Talalay analysis, a CI<0.9 on a Fraction Affected (“Fa”, i.e. fraction of cells killed) indicates synergy, with smaller numbers indicating greater synergy; a CI of 0.9-1.1 signifies an additive or near-additive effect; and a CI>1.1 means the drug combination is antagonistic.
Fenretinide and L-threo-sphinganines tested in human Multiple Myeloma (a cancer of the blood and bone marrow) cell line, U-266.

[2] = tested on: A-172 Glioblastoma multiforme cell line; assay: DIMSCAN cytotoxicity, fenretinide + L-threo-sphinganines 3:1 (Example B4); design: key to CI (Combination Index): Chou-Talalay CI: <0.9 synergy, 0.9-1.1 additive, >1.1 antagonism; conditions: 96 h
Procedure: as §1, §2
Fenretinide and L-threo-sphinganines tested in human Glioblastoma multiforme (brain cancer) cell line, A-172.

[3] = tested on: U-118 Glioblastoma cell line; assay: DIMSCAN cytotoxicity, fenretinide + L-threo-sphinganines 3:1 (Example B5); design: key to CI (Combination Index): CI<0.9 synergy, 0.9-1.1 additive, >1.1 antagonistic; conditions: U-118 MG, 96 h
Procedure: as §1, §2
Fenretinide and L-threo-sphinganines tested in human Glioblastoma (brain cancer) cell line, U-118.

[4] = tested on: T98G Glioblastoma multiforme cell line; assay: DIMSCAN cytotoxicity, fenretinide + L-threo-sphinganines 3:1 (Example B6); conditions: 96 h
Procedure: as §1, §2
Fenretinide and L-threo-sphinganines tested in human Glioblastoma multiforme (brain cancer) cell line, T98G.

[5] = tested on: SJ-GBM2 Glioblastoma multiforme cell line; assay: DIMSCAN cytotoxicity, fenretinide + L-threo-sphinganines 3:1 (Example B7); design: key to CI (Combination Index): Chou-Talalay CI: <0.9 synergy, 0.9-1.1 additive, >1.1 antagonism; conditions: 96 h
Procedure: as §1, §2
Fenretinide and L-threo-sphinganines tested in human Glioblastoma multiforme (brain cancer) cell line, SJ-GBM2.

[6] = tested on: HT-29 colorectal adenocarcinoma cell line; assay: DIMSCAN cytotoxicity, fenretinide + L-threo-sphinganines 3:1 (Example B10); conditions: 96 h
Procedure: as §1, §2
Fenretinide and L-threo-sphinganines tested in human colorectal adenocarcinoma (colon cancer) cell line, HT-29.

[7] = tested on: A-549 lung adenocarcinoma cell line; assay: DIMSCAN cytotoxicity, fenretinide + L-threo-sphinganines 3:1 (Example B13); conditions: 96 h
Procedure: as §1, §2
Fenretinide and L-threo-sphinganines tested in human lung adenocarcinoma (lung cancer) cell line, A-549.

[8] = tested on: PANC-1 pancreatic adenocarcinoma cell line; assay: DIMSCAN cytotoxicity, fenretinide + L-threo-sphinganines 3:1 (Example B18)
Procedure: as §1, §2
Fenretinide and L-threo-sphinganines tested in human pancreatic adenocarcinoma (pancreas cancer) cell line, PANC-1.

[9] = 4-HPR 1.5 μM + L-threo-sphinganine 0.5 μM
[10] = 4-HPR 3 μM + L-threo-sphinganine 1 μM
[11] = 4-HPR 6 μM + L-threo-sphinganine 2 μM
[12] = 4-HPR 9 μM + L-threo-sphinganine 3 μM

CCCCCCCCCCCCCCC[C@H](O)[C@@H](N)CO [C18, (2S,3S)-2-amino-1,3-octadecanediol, reference compound]
CI (Combination Index) [1, 9]: 1.4
Fa (fraction affected) [1, 9]: 0.048
CI (Combination Index) [1, 10]: 1.5
Fa (fraction affected) [1, 10]: 0.268
CI (Combination Index) [1, 11]: 1.3
Fa (fraction affected) [1, 11]: 0.883
CI (Combination Index) [1, 12]: 0.8
Fa (fraction affected) [1, 12]: 0.999
CI (Combination Index) [2, 9]: 1.3
Fa (fraction affected) [2, 9]: 0.233
CI (Combination Index) [2, 10]: 0.5
Fa (fraction affected) [2, 10]: 0.803
CI (Combination Index) [2, 11]: 0.3
Fa (fraction affected) [2, 11]: 0.956
CI (Combination Index) [2, 12]: 0.1
Fa (fraction affected) [2, 12]: 0.993
CI (Combination Index) [3, 9]: 1.4
Fa (fraction affected) [3, 9]: 0.317
CI (Combination Index) [3, 10]: 2.3
Fa (fraction affected) [3, 10]: 0.407
CI (Combination Index) [3, 11]: 0.5
Fa (fraction affected) [3, 11]: 0.976
CI (Combination Index) [3, 12]: 0.3
Fa (fraction affected) [3, 12]: 0.995
CI (Combination Index) [4, 9]: 0.786
Fa (fraction affected) [4, 9]: 0.657
CI (Combination Index) [4, 10]: 1.316
Fa (fraction affected) [4, 10]: 0.701
CI (Combination Index) [4, 11]: 0.767
Fa (fraction affected) [4, 11]: 0.906
CI (Combination Index) [4, 12]: 0.023
Fa (fraction affected) [4, 12]: 0.999
CI (Combination Index) [5, 9]: >>1
Fa (fraction affected) [5, 9]: 0.001
CI (Combination Index) [5, 10]: 0.6
Fa (fraction affected) [5, 10]: 0.712
CI (Combination Index) [5, 11]: 0.6
Fa (fraction affected) [5, 11]: 0.987
CI (Combination Index) [5, 12]: 0.7
Fa (fraction affected) [5, 12]: 0.999
CI (Combination Index) [6, 9]: 0.9
Fa (fraction affected) [6, 9]: 0.243
CI (Combination Index) [6, 10]: 0.7
Fa (fraction affected) [6, 10]: 0.756
CI (Combination Index) [6, 11]: 0.5
Fa (fraction affected) [6, 11]: 0.983
CI (Combination Index) [6, 12]: 0.3
Fa (fraction affected) [6, 12]: 0.999
CI (Combination Index) [7, 9]: 1.0
Fa (fraction affected) [7, 9]: 0.012
CI (Combination Index) [7, 10]: 1.0
Fa (fraction affected) [7, 10]: 0.05
CI (Combination Index) [7, 11]: 1.0
Fa (fraction affected) [7, 11]: 0.200
CI (Combination Index) [7, 12]: 0.6
Fa (fraction affected) [7, 12]: 0.700
CI [8, 9]: 2.5
Fa [8, 9]: 0.136
CI [8, 10]: 2.1
Fa [8, 10]: 0.336
CI [8, 11]: 1.4
Fa [8, 11]: 0.620
CI [8, 12]: 1.5
Fa [8, 12]: 0.700

CCCCCCCCC[C@H](O)[C@@H](N)CO [C12]
CI (Combination Index) [1, 9]: 0.8
Fa (fraction affected) [1, 9]: 0.176
CI (Combination Index) [1, 10]: 0.9
Fa (fraction affected) [1, 10]: 0.326
CI (Combination Index) [1, 11]: 0.9
Fa (fraction affected) [1, 11]: 0.697
CI (Combination Index) [1, 12]: 1.2
Fa (fraction affected) [1, 12]: 0.748
CI (Combination Index) [2, 9]: 6.1
Fa (fraction affected) [2, 9]: 0.024
CI (Combination Index) [2, 10]: 4.4
Fa (fraction affected) [2, 10]: 0.065
CI (Combination Index) [2, 11]: 0.4
Fa (fraction affected) [2, 11]: 0.849
CI (Combination Index) [2, 12]: 0.2
Fa (fraction affected) [2, 12]: 0.981
CI (Combination Index) [3, 9]: 1.5
Fa (fraction affected) [3, 9]: 0.226
CI (Combination Index) [3, 10]: 1.0
Fa (fraction affected) [3, 10]: 0.671
CI (Combination Index) [3, 11]: 0.3
Fa (fraction affected) [3, 11]: 0.988
CI (Combination Index) [3, 12]: 0.2
Fa (fraction affected) [3, 12]: 0.996
CI (Combination Index) [4, 9]: 2.8
Fa (fraction affected) [4, 9]: 0.306
CI (Combination Index) [4, 10]: 3.6
Fa (fraction affected) [4, 10]: 0.408
CI (Combination Index) [4, 11]: 1.5
Fa (fraction affected) [4, 11]: 0.781
CI (Combination Index) [4, 12]: 0.2
Fa (fraction affected) [4, 12]: 0.981
CI (Combination Index) [5, 9]: 0.5
Fa (fraction affected) [5, 9]: 0.133
CI (Combination Index) [5, 10]: 0.7
Fa (fraction affected) [5, 10]: 0.271
CI (Combination Index) [5, 11]: 0.7
Fa (fraction affected) [5, 11]: 0.930
CI (Combination Index) [5, 12]: 0.9
Fa (fraction affected) [5, 12]: 0.968
CI (Combination Index) [6, 9]: 1.0
Fa (fraction affected) [6, 9]: 0.217
CI (Combination Index) [6, 10]: 1.2
Fa (fraction affected) [6, 10]: 0.642
CI (Combination Index) [6, 11]: 1.3
Fa (fraction affected) [6, 11]: 0.951
CI (Combination Index) [6, 12]: 1.6
Fa (fraction affected) [6, 12]: 0.975
CI (Combination Index) [7, 9]: 2.5
Fa (fraction affected) [7, 9]: 0.01
CI (Combination Index) [7, 10]: 1.0
Fa (fraction affected) [7, 10]: 0.010
CI (Combination Index) [7, 11]: 1.0
Fa (fraction affected) [7, 11]: 0.010
CI (Combination Index) [7, 12]: 1.0
Fa (fraction affected) [7, 12]: 0.020
CI [8, 9]: 0.9
Fa [8, 9]: 0.232
CI [8, 10]: 3.1
Fa [8, 10]: 0.119
CI [8, 11]: 0.7
Fa [8, 11]: 0.757
CI [8, 12]: 0.2
Fa [8, 12]: 0.977
